Our source for the Ki values is ChEMBL document CHEMBL1133625, “Crystal structures of human factor Xa complexed with potent inhibitors” (J Med Chem, 2000).

For one assay, the target named is Prothrombin (Homo sapiens, UniProt P00734). The assay can be described thus: Binding affinity on Thrombin.
The target of a further assay is T1, Trypsin II (Bos taurus, UniProt Q29463).
T1 sequence (Q29463 whole entry): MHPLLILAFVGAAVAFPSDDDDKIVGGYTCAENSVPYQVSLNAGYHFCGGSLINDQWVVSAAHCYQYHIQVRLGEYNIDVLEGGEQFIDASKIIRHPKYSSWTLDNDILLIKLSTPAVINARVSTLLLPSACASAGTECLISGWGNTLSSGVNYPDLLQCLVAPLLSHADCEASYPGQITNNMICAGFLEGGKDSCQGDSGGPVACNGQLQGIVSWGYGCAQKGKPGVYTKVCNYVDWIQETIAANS
The assay can be described thus: Binding affinity on bovine pancreatic trypsin enzyme.

What is called Ki is the dissociation constant of the complex between target and ligand, obtained from inhibition or displacement. A lower Ki goes with a stronger hold on the target. On to `O=C1[C@@H](NS(=O)(=O)c2cc3ncccc3s2)CCN1Cc1cc2cc[nH]cc-2n1`, for which the Ki at Prothrombin was above 4000 nM; on Trypsin II it was above 2900 nM. `Nc1nccc2ccc(CN3CC[C@H](NS(=O)(=O)c4cc5ncccc5s4)C3=O)cc12` had a Ki at Trypsin II above 2900 nM.
